# Test results taken from US20090149482A1, “STEREOCHEMICALLY DEFINED DIPEPTIDE ESTERS OF ANTIVIRAL AGENTS FOR ENHANCED OCULAR TREATMENT” (priority 2001, published 2009).
# Where “and” joins values, the source holds several entries; their conditions need not be identical. Identical values can stand only once. Like-named read-outs stand apart in the source and are kept apart here.
# What was measured:
# VZV = test: In vitro antiviral screening, CPE inhibition in HFF cells; type: cell-based, varicella zoster virus; settings: VZV, CPE Inhibition
# [1] = for first order hydrolytic rate constant k: 37° C.
# HSV-2 = test: In vitro antiviral screening, CPE inhibition in HFF cells; type: cell-based, herpes simplex virus 2; settings: for EC50: HSV-2, CPE Inhibition
# HSV-1 = test: as above; type: cell-based, herpes simplex virus 1
# HCMV = test: as above; type: cell-based, human cytomegalovirus; settings: for EC50: HCMV, CPE Inhibition
# hPEPT1 = target: T1, hPEPT1 (Homo sapiens, UniProt P46059); test: [3H] Glycylsarcosine uptake and its inhibition in Caco-2 cells (affinity towards peptide transporter); type: cell-based
# T1 construct: endogenous in cells; host or cells: Caco-2 (human colon carcinoma, ATCC)
# T1 sequence (P46059 1-708): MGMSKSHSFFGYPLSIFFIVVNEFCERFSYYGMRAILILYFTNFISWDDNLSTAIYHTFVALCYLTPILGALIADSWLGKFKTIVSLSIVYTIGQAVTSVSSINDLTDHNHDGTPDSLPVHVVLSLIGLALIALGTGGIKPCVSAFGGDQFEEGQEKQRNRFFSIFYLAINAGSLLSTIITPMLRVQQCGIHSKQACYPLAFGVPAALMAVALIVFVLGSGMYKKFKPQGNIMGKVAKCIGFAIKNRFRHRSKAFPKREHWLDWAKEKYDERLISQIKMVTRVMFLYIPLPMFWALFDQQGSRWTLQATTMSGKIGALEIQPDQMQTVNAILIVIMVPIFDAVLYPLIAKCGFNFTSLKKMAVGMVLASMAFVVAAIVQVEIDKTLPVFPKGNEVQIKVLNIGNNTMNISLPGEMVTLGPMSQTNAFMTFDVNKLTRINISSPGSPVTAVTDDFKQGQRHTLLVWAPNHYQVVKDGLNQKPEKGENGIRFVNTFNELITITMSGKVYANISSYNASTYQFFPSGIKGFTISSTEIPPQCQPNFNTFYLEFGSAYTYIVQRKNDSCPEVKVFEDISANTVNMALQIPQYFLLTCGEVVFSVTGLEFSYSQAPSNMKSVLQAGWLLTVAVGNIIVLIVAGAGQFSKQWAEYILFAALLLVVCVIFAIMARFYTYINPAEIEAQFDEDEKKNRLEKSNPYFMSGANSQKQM
# [2] = system: oligopeptide transporter on the rabbit cornea
# EBV = test: In vitro antiviral screening, VCA Elisa; type: cell-based, epstein-barr virus; settings: for EC50: EBV, VCA Elisa
# [3] = pH 1.2, * = no measurable degradation during 7 day experiment
# [4] = pH 2.6, * = no measurable degradation during 7 day experiment
smiles,measurement,setting,value
"CC(C)[C@H](N)C(=O)OCCOCn1cnc2c(=O)[nH]c(N)nc21 [Val-ACV, L-Valine-acyclovir]",EC50,"VZV; Human alphaherpesvirus 3, HFF",< 0.08 µM
same,first order hydrolytic rate constant k,[1]; [3],1.22 k × 10^3 min^−1
same,first order hydrolytic rate constant k,[1]; [4],0.41 k × 10^3 min^−1
same,first order hydrolytic rate constant k,"[1]; pH 4.2, * = no measurable degradation during 7 day experiment",0.008 k × 10^3 min^−1
same,first order hydrolytic rate constant k,"[1]; pH 5.6, * = no measurable degradation during 7 day experiment",0.16 k × 10^3 min^−1
same,first order hydrolytic rate constant k,[1]; pH 7.4,0.67 k × 10^3 min^−1
same,first order hydrolytic rate constant k,[1]; pH 9.0,1.63 k × 10^3 min^−1
same,hydrolytic rate constant k,Aqueous Humor,21.8 (±1.2) k × 10^3 min^−1 mg^−1 protein
same,hydrolytic rate constant k,Cornea homogenate,8.1 (±1.2) k × 10^3 min^−1 mg^−1 protein
same,hydrolytic rate constant k,Iris-Ciliary Body homogenate,283.1 (±19.7) k × 10^3 min^−1 mg^−1 protein
same,hydrolytic rate constant k,Lens homogenate,10.1 (±0.3) k × 10^3 min^−1 mg^−1 protein
same,hydrolytic rate constant k,Vitreous Humor,7.1 (±0.9) k × 10^3 min^−1 mg^−1 protein
same,SI (Selectivity Index) = CC50/EC50,HSV-2,SI > 35.7
same,EC50,"HSV-2; Human alphaherpesvirus 2, HFF",7.77 µM
same,EC50,"HSV-1; Human alphaherpesvirus 1, HFF, read-out: EC50 (concentration required to inhibit viral cytopathogenicity by 50%), HSV-1, CPE Inhibition",9.1 µM
same,EC50,"HSV-1; Human alphaherpesvirus 1, HFF, HSV-1, running text, read-out: EC50 against HSV-1",9.1 µM
same,SI (Selectivity Index) = CC50/EC50,HCMV,SI > 9
same,EC50,"HCMV; Human betaherpesvirus 5, HFF",30.8 µM
same,Ki,hPEPT1,1410 ± 560 µM
same,Vmax of Gly-Sar uptake in presence of the drug,hPEPT1,0.081 ± 0.09 µmol/min/mg
same,Papp (% Control) of [3H] Val-ACV,[2],20.1 (±6.7) % Control
same,SI (Selectivity Index) = CC50/EC50,EBV,SI > 250
same,EC50,EBV; human gammaherpesvirus 4,0.55 µM
"CC(C)C(N)C(=O)NC(C(=O)OCCOCn1cnc2c(=O)[nH]c(N)nc21)C(C)C (stereo not drawn) [Val-Val-ACV, Val-Valacyclovir]",EC50,VZV,0.09 µM
same,first order hydrolytic rate constant k,[1]; [3],0.0062 k × 10^3 min^−1
same,first order hydrolytic rate constant k,[1]; [4],0.0051 k × 10^3 min^−1
same,stability as an ophthalmic solution,"[1]; pH 5.6, concluded from rate constants",stable for two years
same,first order hydrolytic rate constant k,[1]; pH 7.4,0.107 k × 10^3 min^−1
same,first order hydrolytic rate constant k,[1]; pH 9.0,0.24 k × 10^3 min^−1
same,t1/2,"rabbit, tissue homogenate",1.4 h
same,EC50,HSV-2,22.7 µM
same,EC50,HSV-1; read-out: EC50 against HSV-1,6.14 µM
same,EC50,HCMV,> 186 µM
same,Vmax of Gly-Sar uptake in presence of the drug,hPEPT1,0.099 ± 0.10 µmol/min/mg
same,IC50,hPEPT1; read-out: IC50 of inhibition of [3H] Gly-Sar uptake,3460 ± 210 µM
same,Ki,hPEPT1; read-out: Ki,1940 µM and 1890 µM and 2510 µM
same,Papp (% Control) of [3H] Val-ACV,[2],18.6 (±8.9) % Control
same,EC50,EBV,93.1 µM
